US20260085047A1, “TRIPHENYLAZOLE COMPOUND” (SHIRATORI PHARMACEUTICAL CO., LTD., priority 2022, published 2026)

Key:
GST-FABP7 = biological target: T1, GST-FABP7 (Homo sapiens, UniProt O15540, K110R); assay: Evaluation of FABP ligand affinity using ANS (GST-FABP7); assay type: binding, mouse; details: ANS fluorescence displacement; mean±SE of three measurements; read-out: Kd value of FABP for each ligand, GST-FABP7
T1 construct: made in house; host or cells: E. coli BL21 (DE3)
T1 sequence (O15540 1-132 K110R): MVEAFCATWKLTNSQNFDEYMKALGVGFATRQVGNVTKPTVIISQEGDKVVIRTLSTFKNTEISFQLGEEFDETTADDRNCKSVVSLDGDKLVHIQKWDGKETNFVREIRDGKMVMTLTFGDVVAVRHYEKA
Experimental: (§1) GST-FABP3, GST-FABP4, GST-FABP5, and GST-FABP7 were each expressed in E. coli [BL21 (DE3) strain], and then affinity purification was performed using a glutathione column.
(§2) Cloning of GST-FABP3, GST-FABP4, GST-FABP5 and GST-FABP7 vectors was performed by the following method. After reverse transcription of mRNA isolated from mouse heart into cDNA, the FABP3 gene (RefSeqID: NM_010174.1) and FABP4 gene (RefSeqID: NM_024406.2) were each amplified by PCR. These cDNAs were each inserted between the BamHI/EcoRI cleavage sites of a pGEX-2T vector (GE HealthCare Japan, Tokyo) using a DNA ligation kit (Takara Bio, Kusatsu) and an In-fusion kit (Takara Bio USA, CA, USA) to prepare vectors.
(§3) Purification of GST-binding proteins was performed using a GST purification kit (Takara Bio USA). After the E. coli were collected by centrifugation, the provided extraction buffer and aluminum oxide powder were added, and the mixture was crushed in a mortar. The centrifuged supernatant was added to the provided glutathione column and allowed to stand on ice for 30 minutes. The supernatant in the column was then discarded, and washing was performed with extraction buffer, followed by elution with elution buffer containing glutathione. The protein concentration of the elution product was calculated from the absorbance at 280 nm and then used for the ANS assay. 1-anilinonaphthalene-8-sulfonic acid (ANS, final concentration: […], in a solution of 10 mM KH2PO4 and 40 mM KCl at pH 7.4), which binds to FABP proteins and emits fluorescence, and FABP proteins (final concentration: […]), as well as various ligands at concentrations of 0 nM, 100 nM, 1,000 nM, 2,000 nM, and 4,000 nM (final) were incubated for 2 min, and then the fluorescence of ANS was measured (Ex/Em=355 nm/460 nm). The fluorescence intensity at each ligand concentration was converted to a relative value (%) to the ANS fluorescence intensity in the absence of ligand, and then the dissociation constant Kd (nM) was calculated by […] using the following equation.
(§4) The Kd values in the above table are indicated as the mean±SE of three measurements. […] Example Compounds 1 to 5 in the table may also be referred to as Compounds 1 to 5, respectively.

[1] = system: ICR mice, focal cerebral ischemia (tMCAO); assay: Cerebral neuroprotection in focal cerebral ischemia model (tMCAO); assay type: in vivo, mouse; details: tMCAO 2 hours, 0.3 mg/kg orally after reperfusion
Experimental: Male ICR mice (5 weeks old, 25-30 g) were purchased from Japan SLC, Inc. (Shizuoka, Japan). The animals were reared under constant temperature and humidity conditions, in a 12-hour light/dark cycle (light on: 09:00-21:00), and fed ad libitum. All mice were anesthetized with a combination of 0.3 mg/kg medetomidine, 4.0 mg/kg midazolam, and 5.0 mg/kg butorphanol. A silicone-coated 6-0 suture (Doccol Corporation, USA) was inserted from the right external carotid artery into the internal carotid artery up to the origin of the middle cerebral artery, and left in place for 2 hours, then the suture was removed and reperfusion was performed to prepare a mouse model of focal cerebral ischemia (tMCAO). Mice in the sham surgery group underwent the same treatment except for the insertion of the suture. […] Regional cerebral blood flow (rCBF) was monitored by Laser-Doppler flowmetry (FLOC1, OMEGAWAVE, Tokyo, Japan) to confirm whether the right hemisphere was ischemic or not. […] Infarct volume was measured using ImageJ software and expressed as a percentage of the total hemisphere (corresponding to B in FIG. 19, E in FIG. 21, and H in FIG. 23. The vertical axis Neurological score in C of FIG. 19, F of FIG. 21, and I of FIG. 23 represents the neurological deficit. The vertical axis Survival rate (%) in FIG. 24 corresponds to the mouse survival rate). […]

[2] = system: MPTP-treated C57BL6 N mice (PD model animals); assay: Passive avoidance task in PD model animals (MPTP); assay type: in vivo, mouse; details: 0.05, 0.1 and 0.3 mg/kg p.o. once daily for two weeks from Day 20, Day 34, FIG. 2
[3] = system: phosphorylated α-synuclein; assay: Phosphorylated α-synuclein staining in dopaminergic neurons of PD model animals; details: MPTP mice
Description: (§5) The results for the substantia nigra region are shown in FIGS. 6, 7, 10, 11, 14, and 15, and for the ventrotegmental area in FIGS. 8, 9, 12, 13, 16, and 17 (the vertical axis Number of TH^+ cells in FIGS. 6 and 8 corresponds to the number of dopaminergic neurons. The vertical axis Number of double-positive cells/TH^+ positive cells (%) in FIGS. 11 and 13 corresponds to the percentage of dopaminergic neurons that contain phosphorylated α-synuclein. The vertical axis Triple-positive cells/TH-positive cells in FIGS. 15 and 17 corresponds to the percentage of dopaminergic neurons that contain both FABP3 and phosphorylated α-synuclein).

[4] = system: FABP3 and phosphorylated α-synuclein; assay: Double staining for phosphorylated α-synuclein and FABP3 in dopaminergic neurons of PD model animals; assay type: in vivo, mouse; details: MPTP mice
Description: as §5

[5] = system: MPTP-treated C57BL6 N mice (PD model animals); assay: Beam walking task in PD model animals (MPTP); assay type: in vivo, mouse; details: Example Compound 2 0.03, 0.1, 0.3 mg/kg or LIGAND 1 0.3 mg/kg, Day 34, FIG. 5
Experimental: In the beam walking task, the mice were placed on a thin board and allowed to walk, and the number of foot slips before reaching the goal box (corresponding to the vertical axis Number of foot slips in FIG. 5) was measured.

[6] = system: MPTP-treated C57BL6 N mice (PD model animals); assay: Rotarod task in PD model animals (MPTP); assay type: in vivo, mouse; details: Example Compound 2 0.03, 0.1, 0.3 mg/kg or LIGAND 1 0.3 mg/kg, Day 34, 20 rpm, FIG. 4
[7] = system: MPTP-treated C57BL6 N mice (PD model animals); assay: Novel object recognition task in PD model animals (MPTP); assay type: in vivo, mouse; details: 0.03, 0.1 and 0.3 mg/kg p.o. once daily for two weeks, Day 34, FIG. 3
Experimental: In the novel object recognition task, objects of the same shape were placed to be memorized by the mice in the training trial, and in the test trial, one of the objects was replaced with a novel object, and the rate of contact with both objects (corresponding to the vertical axis Discrimination index (%) in FIG. 3) was evaluated.

GST-FABP5 = biological target: T2, GST-FABP5; assay: Evaluation of FABP ligand affinity using ANS (GST-FABP5); assay type: binding, mouse; details: ANS fluorescence displacement; mean±SE of three measurements; read-out: Kd value of FABP for each ligand, GST-FABP5
T2 construct: made in house; host or cells: E. coli BL21 (DE3)
Experimental: as §1, §2, §3

GST-FABP4 = biological target: T3, GST-FABP4; assay: Evaluation of FABP ligand affinity using ANS (GST-FABP4); assay type: binding, mouse; details: ANS fluorescence displacement; mean±SE of three measurements; read-out: Kd value of FABP for each ligand, GST-FABP4
T3 construct: made in house; host or cells: E. coli BL21 (DE3)
Experimental: as §1, §2, §3, §4

GST-FABP3 = biological target: T4, GST-FABP3; assay: Evaluation of FABP ligand affinity using ANS (GST-FABP3); assay type: binding, mouse; details: ANS fluorescence displacement; mean±SE of three measurements; read-out: Kd value of FABP for each ligand, GST-FABP3
T4 construct: made in house; host or cells: E. coli BL21 (DE3)

[8] = system: dopaminergic neurons (TH+ cells) in SNpc and VTA; assay: Dopaminergic neuroprotection: TH-positive cells in brain sections of PD model animals; assay type: in vivo, mouse; details: MPTP mice; Example Compound 2 0.1, 0.3, 1.0 mg/kg or LIGAND 1 0.3 mg/kg; Day 34; FIGS. 6 to 9
Description: as §5

dopaminergic neurons = details: reported in PTL 1 and NPL 6; cited from earlier work

T3 sequence (P15090 whole entry): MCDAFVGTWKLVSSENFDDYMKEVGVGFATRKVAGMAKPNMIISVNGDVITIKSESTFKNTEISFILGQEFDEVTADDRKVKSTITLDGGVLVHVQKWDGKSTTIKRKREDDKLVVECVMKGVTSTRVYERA
T4 sequence (P05413 with tags, fused parts or gaps): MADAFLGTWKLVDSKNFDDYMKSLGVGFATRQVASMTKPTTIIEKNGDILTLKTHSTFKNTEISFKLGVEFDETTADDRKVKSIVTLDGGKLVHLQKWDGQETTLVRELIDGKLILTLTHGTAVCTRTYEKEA
T2 sequence (Q01469 whole entry): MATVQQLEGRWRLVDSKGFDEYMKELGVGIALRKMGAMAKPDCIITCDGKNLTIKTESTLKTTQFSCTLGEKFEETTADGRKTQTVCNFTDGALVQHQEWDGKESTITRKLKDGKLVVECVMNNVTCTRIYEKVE

SMILES | Kd (GST-FABP7) | Beam walking task: number of foot slips, motor function [5] | Rotarod task: time until the mice fell (Latency), motor function [6] | Kd (GST-FABP5) | Kd (GST-FABP4) | Kd (GST-FABP3) | Number of TH+ cells (dopaminergic neurons) in SNpc and VTA [8] | other results
O=C(O)CCCOc1ccc(F)cc1-c1cc(-c2ccccc2C(F)(F)F)n(-c2ccccc2)n1 [Example Compound 1, 4-(4-fluoro-2-(1-phenyl-5-(2-(trifluoromethyl)phenyl)-1H-pyrazol-3-yl)phenoxy)butanoic acid] | ≥ 1000 µM |  |  |  |  |  |  | Mouse survival rate compared to Vehicle mice ([1]; FIG. 24): improved; Cerebral infarct volume compared to Vehicle mice ([1]; TTC staining): reduced; Passive avoidance task: time until entering the dark room (Latency) [2]: concentration-dependent prolongation of the waiting time
O=C(O)CCCOc1ccccc1-c1cc(-c2ccccc2C(F)(F)F)n(-c2ccccc2)n1 [Example Compound 2, 4-(2-(1-phenyl-5-(2-(trifluoromethyl)phenyl)-1H-pyrazol-3-yl)phenoxy)butanoic acid] | 2.05 ± 0.0352 µM | improvement in motor function was confirmed | improvement in motor function was confirmed | 0.189 ± 0.0245 µM | 0.104 ± 0.0363 µM | 0.0117 ± 0.0188 µM | suppresses the decrease in dopaminergic neurons | Phosphorylation level of α-synuclein in dopaminergic neurons ([3]; 0.1, 0.3, 1.0 mg/kg, Day 34, SNpc and VTA, FIGS. 10 to 13): reduced; Protection of dopaminergic neurons from the toxicity of phosphorylated α-synuclein, substantia nigra (SNpc) ([3]; brain sections of SNpc, FIG. 11): protected dopaminergic neurons; Protection of dopaminergic neurons from the toxicity of phosphorylated α-synuclein, ventrotegmental area (VTA) ([3]; brain sections of VTA, FIG. 13): protected dopaminergic neurons; Localization of FABP3 and phosphorylated α-synuclein in dopaminergic neurons ([4]; 0.1, 0.3, 1.0 mg/kg, Day 34, SNpc and VTA, FIGS. 14 to 17): reduced; Interaction between phosphorylated α-synuclein and FABP3 in dopaminergic neurons, substantia nigra (SNpc) ([4]; brain sections of SNpc, FIG. 15): inhibited; Interaction between phosphorylated α-synuclein and FABP3 in dopaminergic neurons, ventrotegmental area (VTA) ([4]; brain sections of VTA, FIG. 17): inhibited; Novel object recognition task: rate of contact with novel and known objects (Discrimination index) [7]: trend of improvement in cognitive function
O=C(O)CCCOc1ccccc1-c1nc(-c2ccccc2C(F)(F)F)n(-c2ccccc2)n1 [Example Compound 3, 4-(2-(1-phenyl-5-(2-(trifluoromethyl)phenyl)-1H-1,2,4-triazol-3-yl)phenoxy)butanoic acid] | ≥ 1000 µM |  |  |  | 0.369 ± 0.0441 µM | 0.16 ± 0.0341 µM |  | 
CC(C)c1ccc(-n2nc(-c3cc(F)ccc3OCCCC(=O)O)cc2-c2ccccc2C(F)(F)F)cc1 [Example Compound 4, 4-(4-fluoro-2-(1-(4-isopropylphenyl)-5-(2-(trifluoromethyl)phenyl)-1H-pyrazol-3-yl)phenoxy)butanoic acid] | ≥ 1000 µM |  |  | 1.35 ± 0.204 µM | 2.18 ± 0.458 µM | 0.113 ± 0.0031 µM |  | 
CC(C)c1ccc(-n2nc(-c3ccccc3OCCCC(=O)O)cc2-c2ccccc2C(F)(F)F)cc1 [Example Compound 5, 4-(2-(1-(4-isopropylphenyl)-5-(2-(trifluoromethyl)phenyl)-1H-pyrazol-3-yl)phenoxy)butanoic acid] | ≥ 1000 µM |  |  | 1.82 ± 0.392 µM | 0.434 ± 0.0109 µM | 0.0548 ± 0.0045 µM |  | 
O=C(O)CCCOc1ccccc1-c1cc(-c2ccccc2Cl)n(-c2ccccc2)n1 [LIGAND 1, reference compound] |  | Improvement was also confirmed | No improvement was observed | 0.324 ± 0.0452 µM | 0.229 ± 0.0399 µM |  | no improvement was observed | Protection of dopaminergic neurons from cell death due to α-synuclein oligomerization (dopaminergic neurons): protects dopaminergic neurons from cell death
